In data set [1] the test system is unidentified influenza virus. In words: Antiviral activity against Influenza virus A2/Asian/J305 infected in ip dosed mouse assessed as concentration required to cause survival at 21 days. The class given is functional. The settings on record: 504 h, read-out: PD50.
The test system of another data set is Enterovirus. In words: Antiviral activity against Rhinovirus 42 infected in human WI38 cells assessed as growth inhibition after 7 days by tube dilution method. It is filed as functional, organism-based. The settings on record: WI-38.
Data set [2] relates to unidentified influenza virus. Briefly: Antiviral activity against Influenza virus A2/Asian/J305 infected in mouse assessed as survival at 200 mg/kg, ip administered 3 doses on day of viral infection followed by 2 doses on next day and single dose per day for next 2 days relative to control. The class given is functional. The settings on record: 48 h, route intraperitoneal.

The subject of data set [3] is unidentified influenza virus. Briefly: Antiviral activity against Influenza virus A2/Asian/J305 infected in mouse assessed as survival at 200 mg/kg, ip administered two doses at 24 hrs post viral infection followed by single dose for subsequent days relative to control. It is filed as functional. The settings on record: route intraperitoneal.
Data set [4] deals with unidentified influenza virus. In words: Antiviral activity against Influenza virus A2/Asian/J305 infected in po dosed mouse assessed as concentration required to cause survival at 21 days. It is filed as functional. The settings on record: 504 h, read-out: PD50.
A short description of data set [5]: Acute toxicity in ip dosed mouse measured for 24 hrs. The class given is organism-based. Conditions: in vivo.
In data set [6] the test system is unidentified influenza virus. In words: Antiviral activity against Influenza virus A2/Asian/J305 infected in mouse assessed as survival at 200 mg/kg, ip administered single dose at 5 mins post viral infection followed by 2 doses per day for next 3 days relative to control. It is filed as functional. Conditions: route intraperitoneal.
Data set [7] concerns Mus musculus. Briefly: Toxicity in mouse assessed as CNS related side effects up to 1000 mg/kg, po measured for 24 hrs. The class given is organism-based, Central nervous system. On the set-up: dose 1000 mg/kg, route oral. The settings on record: in vivo.
The subject of data set [8] is unidentified influenza virus. In words: Antiviral activity against Influenza virus A2/Asian/J305 infected in rhesus monkey kidney cells assessed as concentration required to reduce viral titer by >= 2 logarithms after 4 days by tube dilution method. It is filed as functional.
The next data set deals with Respirovirus muris. Briefly: Antiviral activity against Sendai virus infected in ip dosed mouse assessed as protection against viral infection. The class given is functional, organism-based.
The next data set deals with Influenza B virus. Briefly: Antiviral activity against Influenza B virus (B/Lee/40) infected in rhesus monkey kidney cells assessed as growth inhibition after 4 days by tube dilution method. The settings on record: B/Lee/1940. The class given is functional, organism-based.
Data set [9] in a line: Acute toxicity in po dosed mouse measured for 24 hrs. The class given is organism-based. The settings on record: in vivo.
Data set [10] has as its system Mus musculus. In words: Toxicity in mouse assessed as tremors at > 600 mg/kg, ip measured for 24 hrs. The class given is organism-based. Also on record: dose 600 mg/kg, route intraperitoneal. Conditions: in vivo.
The next data set has as its system Semliki Forest virus. In words: Antiviral activity against Semliki forest virus infected in ip dosed mouse assessed as protection against viral infection. The class given is functional, organism-based.
Data set [11] deals with unidentified influenza virus. Briefly: Antiviral activity against Influenza virus A2/Asian/J305 infected in mouse assessed as survival at 200 mg/kg, ip administered two doses at 48 hrs post viral infection followed by single dose for subsequent days relative to control. It is filed as functional. The settings on record: route intraperitoneal.
The subject of data set [12] is Mus musculus. In words: Toxicity in mouse assessed as ataxia at > 600 mg/kg, ip measured for 24 hrs. The class given is organism-based. On the set-up: dose 600 mg/kg, route intraperitoneal. Conditions: in vivo.
Another data set concerns Herpesviridae sp. Briefly: Antiviral activity against Herpes simplex virus infected in ip dosed mouse assessed as protection against viral infection. The class given is functional, organism-based.
Data set [13] has as its system unidentified influenza virus. In words: Antiviral activity against Influenza virus A2/Asian/J305 infected in mouse assessed as survival at 100 mg/kg, ip administered two doses at 48 hrs post viral infection followed by single dose for subsequent days relative to control. It is filed as functional. The settings on record: route intraperitoneal.
The subject of data set [14] is unidentified influenza virus. In words: Antiviral activity against Influenza virus A2/Asian/J305 infected in mouse assessed as survival at 100 mg/kg, ip administered single dose at 5 mins post viral infection followed by 2 doses per day for next 3 days relative to control. The class given is functional. Conditions: route intraperitoneal.
Data set [15] has as its system Mus musculus. Briefly: Toxicity in mouse assessed as CNS related side effects at 100 mg/kg, ip and 300 mg/kg, po measured for 24 hrs. The class given is organism-based, Central nervous system. The settings on record: in vivo.
For data set [16], the system named is unidentified influenza virus. In words: Antiviral activity against Influenza virus A2/Asian/J305 infected in mouse assessed as survival at 100 mg/kg, ip administered two doses at 24 hrs post viral infection followed by single dose for subsequent days relative to control. It is filed as functional. Conditions: route intraperitoneal.
In data set [17] the test system is unidentified influenza virus. In words: Antiviral activity against Influenza virus A2/Asian/J305 infected in mouse assessed as survival at 50 mg/kg, ip administered 3 doses on day of viral infection followed by 2 doses on next day and single dose per day for next 2 days relative to control. It is filed as functional. Conditions: 48 h, route intraperitoneal.

Active and inactive are the calls of the source. The calls are words filed in the database; no cut-off is given here. Some results are limits rather than exact numbers.

A word on the LD50: it is the dose at which mortality reaches 50%.

Turning to `NC(=S)NC12CC3CC(CC(C3)C1)C2`, the ED50 in [1] is over 200 mg/kg.

Consider `NC(=O)NC(=S)NC12CC3CC(CC(C3)C1)C2`, for which, in data set [1], the ED50 is over 400 mg/kg.

Take `CCOC(=O)NC(=S)NC12CC3CC(CC(C3)C1)C2`: in [1], the ED50 was over 400 mg/kg.

Turning to `Nc1ccc(S(=O)(=O)NC(=S)NC23CC4CC(CC(C4)C2)C3)cc1`, the “growth inhibition (GI)” value in the data set on Enterovirus and in the data set with Influenza B virus was “inactive” each time. In addition, the survival at 200 mg/kg came out at 77% in data set [2], 28% in data set [3], 36% in [6] and 0% in [11]. Besides, the ED50 in [4] came out at 35 mg/kg; in data set [1], 16 mg/kg. The LD50 at 24 h in data set [5] was 775 mg/kg; in [9] it was over 1000 mg/kg. Also, the Activity result with Mus musculus [7] is “Non-toxic”; in [8], 12.5 µg/mL; in the data set with Mus musculus [10] it was “Toxic”; in the data set with Mus musculus [12], “Toxic”. Also, the result with Respirovirus muris, in the data set on Semliki Forest virus and with Herpesviridae sp. was inactive.

For `O=C(NC(=S)NC12CC3CC(CC(C3)C1)C2)Oc1ccccc1`, the ED50 in data set [1] was over 400 mg/kg.

With `NC12CC3CC(CC(C3)C1)C2` [AMANTADINE], the survival at 100 mg/kg is 0% in data set [13], 67% in data set [14] and 77% in data set [16]. Further, the “growth inhibition (GI)” value with Enterovirus and in the data set with Influenza B virus was “inactive” throughout. Besides, the ED50 in data set [4] was 4 mg/kg; in data set [1], 6 mg/kg. The Activity entry is “Toxic” in the data set with Mus musculus [15] and 0.05 µg/mL in data set [8]. Moreover, the outcome with Respirovirus muris, with Semliki Forest virus and in the data set with Herpesviridae sp. was inactive. Moreover, in data set [17], the survival at 50 mg/kg came out at 72%.

Turning to `CC(=O)Nc1ccc(S(=O)(=O)NC(=S)NC23CC4CC(CC(C4)C2)C3)cc1`, in [1], the ED50 was over 200 mg/kg.

For the molecule `O=C1CSC(NC23CC4CC(CC(C4)C2)C3)=N1`, the ED50 in data set [1] was over 200 mg/kg.

For the molecule `CCOC(=O)/N=C(/NC12CC3CC(CC(C3)C1)C2)SC`, the ED50 in data set [1] is 158 mg/kg.

Turning to `Cc1ccc(S(=O)(=O)NC(=S)NC23CC4CC(CC(C4)C2)C3)cc1`, the ED50 in data set [1] was over 200 mg/kg.

The record behind these values is ChEMBL document CHEMBL3244298, “Adamantylthiourea derivatives as antiviral agents” (J Med Chem, 1979).
